We go through 20 substances from the OligoGym collection.

Values joined by “and” are separate entries in the source; they are usually repeats but may differ in a detail not shown here. Equal entries are not always repeated. HELM strings list units from the 5' end as sugar, base in round brackets, then linkage (d deoxyribose, r ribose, m 2'-O-methyl, p phosphodiester). Strings are as the collection lists them, not checked against the first reports. ss, as = sense and antisense strand; [fl2r] = 2'-fluoro
Further: test system not given here.

For this data set the following is noted: siRNA.
As to “RNA1{r(G)p.r(A)p.r(A)p.m(U)p.r(A)p.r(A)p.r(C)p.r(C)p.m(U)p.r(G)p.r(A)p.r(A)p.r(C)p.r(G)p.r(U)p.m(C)p.r(A)p.r(C)p.r(C)p.r(T)p.r(T)}|RNA2{r(G)p.r(G)p.m(U)p.r(G)p.r(A)p.r(C)p.r(G)p.r(U)p.r(U)p.m(C)p.r(A)p.r(G)p.r(G)p.r(U)p.m(U)p.r(A)p.r(U)p.r(U)p.r(C)p.r(T)p.r(T)}$$$RNA1{StrandType:ss}|RNA2{StrandType:as}$”, the target mRNA knockdown was 51% and 69%.
For “RNA1{r(G)p.r(A)p.r(A)p.m(U)p.r(A)p.r(A)p.r(C)p.r(C)p.r(U)p.r(G)p.r(A)p.r(A)p.r(C)p.r(G)p.r(U)p.m(C)p.r(A)p.r(C)p.r(C)p.r(T)p.r(T)}|RNA2{r(G)p.r(G)p.r(U)p.r(G)p.r(A)p.r(C)p.r(G)p.r(U)p.r(U)p.m(C)p.r(A)p.r(G)p.r(G)p.r(U)p.r(U)p.r(A)p.r(U)p.r(U)p.r(C)p.r(T)p.r(T)}$$$RNA1{StrandType:ss}|RNA2{StrandType:as}$” the value was 71%; for “RNA1{r(G)p.r(A)p.r(A)p.m(U)p.r(A)p.r(A)p.r(C)p.r(C)p.r(U)p.r(G)p.r(A)p.r(A)p.r(C)p.r(G)p.r(U)p.r(C)p.r(A)p.r(C)p.r(C)p.r(T)p.r(T)}|RNA2{r(G)p.r(G)p.r(U)p.r(G)p.r(A)p.r(C)p.r(G)p.r(U)p.r(U)p.r(C)p.r(A)p.r(G)p.r(G)p.r(U)p.m(U)p.r(A)p.r(U)p.r(U)p.r(C)p.r(T)p.r(T)}$$$RNA1{StrandType:ss}|RNA2{StrandType:as}$”, 55%.
In the case of “RNA1{r(G)p.r(A)p.r(A)p.r(A)p.r(A)p.r(C)p.r(G)p.r(C)p.r(U)p.m(U)p.r(G)p.m(U)p.r(A)p.r(A)p.r(A)p.r(G)p.r(C)p.r(C)p.r(G)p.r(T)p.r(T)}|RNA2{r(C)p.r(G)p.r(G)p.r(C)p.r(U)p.r(U)p.m(U)p.r(A)p.m(C)p.r(A)p.r(A)p.r(G)p.r(C)p.r(G)p.r(U)p.r(U)p.r(U)p.r(U)p.r(C)p.r(T)p.r(T)}$$$RNA1{StrandType:ss}|RNA2{StrandType:as}$”, the target mRNA knockdown was determined as 54%.
For “RNA1{r(G)p.r(A)p.r(A)p.r(A)p.r(A)p.r(C)p.r(G)p.r(C)p.r(U)p.r(U)p.r(G)p.r(U)p.r(A)p.r(A)p.r(A)p.r(G)p.r(C)p.r(C)p.r(G)p.r(T)p.r(T)}|RNA2{r(C)p.r(G)p.r(G)p.r(C)p.r(U)p.r(U)p.m(U)p.r(A)p.r(C)p.r(A)p.r(A)p.r(G)p.r(C)p.r(G)p.r(U)p.r(U)p.r(U)p.r(U)p.r(C)p.r(T)p.r(T)}$$$RNA1{StrandType:ss}|RNA2{StrandType:as}$” the value was 56%; for “RNA1{r(G)p.r(A)p.r(A)p.r(A)p.r(C)p.m(U)p.m(G)p.r(G)p.m(U)p.r(A)p.r(C)p.m(U)p.r(U)p.r(U)p.r(C)p.r(C)p.r(C)p.r(C)p.r(C)p.r(T)p.r(T)}|RNA2{r(G)p.r(G)p.r(G)p.r(G)p.r(G)p.r(A)p.r(A)p.r(A)p.r(G)p.m(U)p.r(A)p.r(C)p.m(C)p.m(A)p.r(G)p.r(U)p.r(U)p.r(U)p.r(C)p.r(T)p.r(T)}$$$RNA1{StrandType:ss}|RNA2{StrandType:as}$”, 85%; for “RNA1{r(G)p.r(A)p.r(A)p.r(A)p.r(C)p.m(U)p.m(G)p.r(G)p.m(U)p.r(A)p.r(C)p.r(U)p.r(U)p.r(U)p.r(C)p.r(C)p.r(C)p.r(C)p.r(C)p.r(T)p.r(T)}|RNA2{r(G)p.r(G)p.r(G)p.r(G)p.r(G)p.r(A)p.r(A)p.r(A)p.r(G)p.m(U)p.r(A)p.r(C)p.r(C)p.r(A)p.r(G)p.r(U)p.r(U)p.r(U)p.r(C)p.r(T)p.r(T)}$$$RNA1{StrandType:ss}|RNA2{StrandType:as}$”, 88%.
The figure for “RNA1{r(G)p.r(A)p.r(A)p.r(A)p.r(C)p.r(U)p.r(G)p.r(G)p.[fl2r](U)p.r(A)p.r(C)p.r(U)p.r(U)p.r(U)p.r(C)p.r(C)p.r(C)p.r(C)p.r(C)p.r(T)p.r(T)}|RNA2{r(G)p.r(G)p.r(G)p.r(G)p.r(G)p.r(A)p.r(A)p.r(A)p.r(G)p.[fl2r](U)p.r(A)p.r(C)p.r(C)p.r(A)p.r(G)p.r(U)p.r(U)p.r(U)p.r(C)p.r(T)p.r(T)}$$$RNA1{StrandType:ss}|RNA2{StrandType:as}$” is 58%; for “RNA1{r(G)p.r(A)p.r(A)p.r(A)p.r(C)p.r(U)p.r(G)p.r(G)p.r(U)p.r(A)p.r(C)p.r(U)p.r(U)p.r(U)p.r(C)p.r(C)p.r(C)p.r(C)p.r(C)p.r(T)p.r(T)}|RNA2{r(G)p.r(G)p.r(G)p.r(G)p.r(G)p.r(A)p.r(A)p.r(A)p.r(G)p.[fl2r](U)p.r(A)p.r(C)p.r(C)p.r(A)p.r(G)p.[fl2r](U)p.[fl2r](U)p.[fl2r](U)p.r(C)p.r(T)p.r(T)}$$$RNA1{StrandType:ss}|RNA2{StrandType:as}$” it is 26%; for “RNA1{r(G)p.r(A)p.r(A)p.r(C)p.r(U)p.r(C)p.r(U)p.r(U)p.r(A)p.r(G)p.r(C)p.r(G)p.r(U)p.r(A)p.r(U)p.r(G)p.r(C)p.r(A)p.r(A)p.d(T)p.d(T)}|RNA2{r(U)p.r(U)p.r(G)p.r(C)p.r(A)p.r(U)p.r(A)p.r(C)p.r(G)p.r(C)p.r(U)p.r(A)p.r(A)p.r(G)p.r(A)p.r(G)p.r(U)p.r(U)p.r(C)p.d(T)p.d(T)}$$$RNA1{StrandType:ss}|RNA2{StrandType:as}$” it is 56%.
“RNA1{r(G)p.r(A)p.r(A)p.r(G)p.r(A)p.[fl2r](U)p.r(A)p.r(G)p.r(G)p.r(A)p.r(A)p.r(G)p.r(G)p.r(G)p.r(G)p.[fl2r](C)p.[fl2r](U)p.[fl2r](U)p.[fl2r](C)p.r(T)p.r(T)}|RNA2{r(G)p.r(A)p.r(A)p.r(G)p.r(C)p.r(C)p.r(C)p.r(C)p.r(U)p.r(U)p.r(C)p.r(C)p.r(U)p.r(A)p.r(U)p.r(C)p.r(U)p.r(U)p.r(C)p.r(T)p.r(T)}$$$RNA1{StrandType:ss}|RNA2{StrandType:as}$”: the target mRNA knockdown is 45%.
For “RNA1{r(G)p.r(A)p.r(A)p.r(G)p.r(A)p.[fl2r](U)p.r(A)p.r(G)p.r(G)p.r(A)p.r(A)p.r(G)p.r(G)p.r(G)p.r(G)p.r(C)p.r(U)p.r(U)p.r(C)p.r(T)p.r(T)}|RNA2{r(G)p.r(A)p.r(A)p.r(G)p.r(C)p.r(C)p.r(C)p.r(C)p.r(U)p.r(U)p.r(C)p.r(C)p.[fl2r](U)p.r(A)p.r(U)p.r(C)p.r(U)p.r(U)p.r(C)p.r(T)p.r(T)}$$$RNA1{StrandType:ss}|RNA2{StrandType:as}$” the value was 56%.
The figure for “RNA1{r(G)p.r(A)p.r(A)p.r(G)p.r(A)p.r(G)p.r(C)p.r(C)p.m(U)p.m(A)p.m(C)p.r(A)p.m(C)p.r(A)p.r(A)p.r(C)p.r(C)p.r(C)p.r(U)p.r(T)p.r(T)}|RNA2{r(A)p.r(G)p.r(G)p.r(G)p.r(U)p.m(U)p.r(G)p.m(U)p.r(G)p.m(U)p.r(A)p.r(G)p.r(G)p.r(C)p.r(U)p.r(C)p.r(U)p.r(U)p.r(C)p.r(T)p.r(T)}$$$RNA1{StrandType:ss}|RNA2{StrandType:as}$” is 74%.
For the substance “RNA1{r(G)p.r(A)p.r(A)p.r(G)p.r(A)p.r(G)p.r(C)p.r(C)p.m(U)p.r(A)p.m(C)p.r(A)p.m(C)p.r(A)p.r(A)p.r(C)p.r(C)p.r(C)p.r(U)p.r(T)p.r(T)}|RNA2{r(A)p.r(G)p.r(G)p.r(G)p.r(U)p.m(U)p.r(G)p.m(U)p.r(G)p.m(U)p.r(A)p.r(G)p.r(G)p.r(C)p.r(U)p.r(C)p.r(U)p.r(U)p.r(C)p.r(T)p.r(T)}$$$RNA1{StrandType:ss}|RNA2{StrandType:as}$”, the target mRNA knockdown was 75%.
“RNA1{r(G)p.r(A)p.r(A)p.r(G)p.r(A)p.r(G)p.r(C)p.r(C)p.m(U)p.r(A)p.m(C)p.r(A)p.r(C)p.r(A)p.r(A)p.r(C)p.r(C)p.r(C)p.r(U)p.r(T)p.r(T)}|RNA2{r(A)p.r(G)p.r(G)p.r(G)p.r(U)p.r(U)p.r(G)p.m(U)p.r(G)p.m(U)p.r(A)p.r(G)p.r(G)p.r(C)p.r(U)p.r(C)p.r(U)p.r(U)p.r(C)p.r(T)p.r(T)}$$$RNA1{StrandType:ss}|RNA2{StrandType:as}$”: the target mRNA knockdown worked out at 76%.
For “RNA1{r(G)p.r(A)p.r(A)p.r(G)p.r(A)p.r(G)p.r(C)p.r(C)p.r(U)p.r(A)p.m(C)p.r(A)p.m(C)p.r(A)p.r(A)p.r(C)p.r(C)p.r(C)p.r(U)p.r(T)p.r(T)}|RNA2{r(A)p.r(G)p.r(G)p.r(G)p.r(U)p.m(U)p.r(G)p.r(U)p.r(G)p.m(U)p.r(A)p.r(G)p.r(G)p.r(C)p.r(U)p.r(C)p.r(U)p.r(U)p.r(C)p.r(T)p.r(T)}$$$RNA1{StrandType:ss}|RNA2{StrandType:as}$” the value was 74%.
For “RNA1{r(G)p.r(A)p.r(A)p.r(G)p.r(A)p.r(G)p.r(U)p.m(U)p.r(A)p.r(A)p.r(C)p.r(C)p.r(C)p.m(G)p.r(G)p.r(G)p.m(A)p.r(C)p.r(U)p.r(T)p.r(T)}|RNA2{r(A)p.r(G)p.r(U)p.r(C)p.r(C)p.r(C)p.r(G)p.r(G)p.r(G)p.r(U)p.m(U)p.r(A)p.r(A)p.r(C)p.r(U)p.r(C)p.r(U)p.r(U)p.r(C)p.r(T)p.r(T)}$$$RNA1{StrandType:ss}|RNA2{StrandType:as}$” the value was 47%; for “RNA1{r(G)p.r(A)p.r(A)p.r(G)p.r(A)p.r(G)p.r(U)p.m(U)p.r(A)p.r(A)p.r(C)p.r(C)p.r(C)p.r(G)p.r(G)p.r(G)p.r(A)p.r(C)p.r(U)p.r(T)p.r(T)}|RNA2{r(A)p.r(G)p.r(U)p.r(C)p.r(C)p.r(C)p.r(G)p.r(G)p.r(G)p.r(U)p.m(U)p.r(A)p.r(A)p.r(C)p.r(U)p.r(C)p.r(U)p.r(U)p.r(C)p.r(T)p.r(T)}$$$RNA1{StrandType:ss}|RNA2{StrandType:as}$”, 51%.
For “RNA1{r(G)p.r(A)p.r(A)p.r(G)p.r(A)p.r(U)p.r(A)p.r(G)p.r(G)p.r(A)p.r(A)p.r(G)p.r(G)p.r(G)p.r(G)p.r(C)p.r(U)p.r(U)p.r(C)p.r(T)p.r(T)}|RNA2{r(G)p.r(A)p.r(A)p.r(G)p.[fl2r](C)p.[fl2r](C)p.[fl2r](C)p.[fl2r](C)p.[fl2r](U)p.[fl2r](U)p.[fl2r](C)p.[fl2r](C)p.[fl2r](U)p.r(A)p.[fl2r](U)p.[fl2r](C)p.[fl2r](U)p.[fl2r](U)p.[fl2r](C)p.r(T)p.r(T)}$$$RNA1{StrandType:ss}|RNA2{StrandType:as}$” the value was 5%.
Substance “RNA1{r(G)p.r(A)p.r(A)p.r(G)p.r(G)p.r(G)p.r(G)p.r(A)p.r(A)p.r(A)p.r(U)p.m(C)p.r(U)p.r(G)p.r(U)p.r(G)p.r(G)p.r(U)p.r(U)p.r(T)p.r(T)}|RNA2{r(A)p.r(A)p.r(C)p.m(C)p.r(A)p.r(C)p.r(A)p.r(G)p.r(A)p.r(U)p.r(U)p.r(U)p.r(C)p.r(C)p.r(C)p.r(C)p.r(U)p.r(U)p.r(C)p.r(T)p.r(T)}$$$RNA1{StrandType:ss}|RNA2{StrandType:as}$” yielded a target mRNA knockdown of 65%.
